The values below come from paper PMC4722887 (Oncology Reports, 2015).

The assay has as its system CD8 T cells of HLA-A*0201-transgenic HHD mice. Type of assay: in vivo, mouse.

Take “1: native hTERT peptide, start position 540 (540–548) (ILAKFLHWL) [Peptide 1]”: the “Immunogenicity when coupled to the surface of the liposomes” value (HHD mice) is given as “no immunogenicity”.
In the case of “14: heteroclitical peptide derived from #13 (p944) (LQAYRFHAV) [Peptide 14]”, the “CD8 T-cell immune responses against the native epitope, peptide emulsified in IFA” value (injected in HHD mice) was “only weak”.
